Results: PubChem BioAssay AID1259408 (Genetic Toxicology Data Bank (GENE-TOX), 2018)
Activity calls are given as the source filed them. How the calls were made is not given here.

Test system: GENE-TOX genotoxicity assays, various organisms and cells
Assay: GENE-TOX mutagenicity studies
Details: for call: Assay Type: In vivo carcinogenicity studies
Description: GENE-TOX provides genetic toxicology (mutagenicity) test data from expert peer review of open scientific literature for more than 3,000 chemicals from the United States Environmental Protection Agency (EPA). GENE-TOX was established to select assay systems for evaluation, review data in the scientific literature, and recommend proper testing protocols and evaluation procedures for these systems.
GENE-TOX covers the years 1991 - 1998. It is no longer updated.
This is an archive assay for GENE-TOX mutagenicity studies.

[1] = Species/Cell Type: Human lymphocytes, Assay Type: Sister-chromatid exchange (SCE) in vitro, Assay Code: SCL+D, Dose Response: With dose response, Evaluation Type: Evaluation B (Post-1980)
[2] = Species/Cell Type: Human lymphocytes, Assay Type: Sister-chromatid exchange (SCE) in vivo, Assay Code: SCY+, Evaluation Type: Evaluation B (Post-1980)
[3] = Species/Cell Type: Human, Assay Type: Sister-chromatid exchange (SCE) in vitro, Assay Code: SC1+D, Dose Response: With dose response, Evaluation Type: Evaluation B (Post-1980)
[4] = Species/Cell Type: Nonhuman, Assay Code: CCG+L, Evaluation Type: Evaluation A (Pre-1980)
[5] = Species/Cell Type: Salmonella typhimurium (one or more of the five standard strains: TA98, TA100, TA1535, TA1537, and TA1538), Assay Type: Histidine reverse gene mutation, Ames assay, Assay Code: SAL+*, Activation: With metabolic activation, Evaluation Type: Evaluation A (Pre-1980)
[6] = Species/Cell Type: Bacillus subtilis (H17 vs M45), Assay Type: Rec-assay, spot test, DNA effects (bacterial DNA repair), Assay Code: REW-, Evaluation Type: Evaluation A (Pre-1980)
[7] = Species/Cell Type: Saccharomyces cerevisiae, Assay Type: Mitotic recombination or gene conversion, Assay Code: YEH-, Evaluation Type: Evaluation A (Pre-1980)
[8] = Species/Cell Type: Nonhuman, Assay Code: CCG+, Evaluation Type: Evaluation A (Pre-1980)
[9] = Species/Cell Type: Bacillus subtilis (H17 vs M45), Assay Type: Rec-assay, spot test, DNA effects (bacterial DNA repair), Assay Code: REW+, Evaluation Type: Evaluation A (Pre-1980)
[10] = Species/Cell Type: Salmonella typhimurium, Assay Type: Forward and reverse gene mutation, host-mediated assay, Assay Code: HMA-, Evaluation Type: Evaluation A (Pre-1980)

With `C=Cc1ccccc1` the mutagenic call (Species/Cell Type: Chinese hamster lung (V79) cells, Assay Type: Forward gene mutation at the HPRT or ouabain locus, Assay Code: V79-, Evaluation Type: Evaluation A (Pre-1980)) was “inactive; negative”, the mutagenic call (Species/Cell Type: Drosophila melanogaster, Assay Type: Sex-linked recessive lethal gene mutation, Assay Code: SRL+, Evaluation Type: Evaluation A (Pre-1980)) was “active; positive” and the mutagenic call (Species/Cell Type: Human diploid fibroblasts, Assay Type: Unscheduled DNA synthesis (UDS) in vitro, DNA effects, Assay Code: UDH-*, Activation: With metabolic activation, Evaluation Type: Evaluation A (Pre-1980)) was “inactive; negative”. For the same compound, the mutagenic call (Species/Cell Type: Human lymphocytes or leukocytes, Assay Type: Chromosome aberrations in vivo, Assay Code: CY8+, Evaluation Type: Evaluation A (Pre-1980)) was “active; positive”, the mutagenic call (Species/Cell Type: Human lymphocytes, Assay Type: Micronucleus test in vitro, chromosome aberrations, Assay Code: MN7+, Evaluation Type: Evaluation A (Pre-1980)) was “active; positive” and the mutagenic call [1] was “active; positive”. The mutagenic call [2] was “active; positive”, the mutagenic call [3] was “active; positive” and the mutagenic call (Species/Cell Type: Mammalian polychromatic erythrocytes, Assay Type: Micronucleus test, chromosome aberrations, Assay Code: MNT+, Evaluation Type: Evaluation B (Post-1980)) was “active; positive”. The call [4] was “active; positive”, the mutagenic call (Species/Cell Type: Nonhuman, Assay Type: Sister-chromatid exchange (SCE) in vivo, Assay Code: SC3+D, Dose Response: With dose response, Evaluation Type: Evaluation B (Post-1980)) was “active; positive” and the mutagenic call (Species/Cell Type: Plant, Assay Type: Micronucleus test, chromosome aberrations, Assay Code: MNP+, Evaluation Type: Evaluation A (Pre-1980)) was “active; positive”. For the same compound, the mutagenic call (Species/Cell Type: Saccharomyces cerevisiae, Assay Type: Forward and reverse gene mutation, mitotic recombination and gene conversion, host-mediated assay, Assay Code: HME+, Evaluation Type: Evaluation A (Pre-1980)) was “active; positive”, the mutagenic call (Species/Cell Type: Saccharomyces cerevisiae, Assay Type: Mitotic recombination or gene conversion, Assay Code: YEC+*, Activation: With metabolic activation, Evaluation Type: Evaluation A (Pre-1980)) was “active; positive” and the mutagenic call [5] was “active; positive”. The mutagenic call (Species/Cell Type: Schizosaccharomyces pombe, Assay Type: Forward gene mutation, Assay Code: YEYT, Evaluation Type: Evaluation A (Pre-1980)) was “no conclusion” and the mutagenic call (Species/Cell Type: Syrian hamster embryo (SA7/SHE) cells, Assay Type: Cell transformation, viral enhanced, Assay Code: CT7-, Evaluation Type: Evaluation A (Pre-1980)) was “inactive; negative”.
`[Cl][Cu]` was tested, and the mutagenic call [6] was “inactive; negative”.
`NC[C@H]1O[C@H](O[C@H]2[C@H](O)[C@@H](O[C@H]3O[C@H](CO)[C@@H](O)[C@H](N)[C@H]3O)[C@H](N)C[C@@H]2N)[C@H](N)C[C@@H]1O` was tested, and the mutagenic call [7] was “inactive; negative”.
In the case of `O=CNNc1nc(-c2ccco2)cs1`, the mutagenic call (Species/Cell Type: Escherichia coli WP2, Assay Type: Tryptophan reverse gene mutation, Assay Code: WP2-, Evaluation Type: Evaluation A (Pre-1980)) is reported as “inactive; negative” and the mutagenic call (Species/Cell Type: Escherichia coli WP2 UVRA, Assay Type: Tryptophan reverse gene mutation, Assay Code: WPU-, Evaluation Type: Evaluation A (Pre-1980)) is reported as “inactive; negative”.
For `CCCCNC(=O)NS(=O)(=O)c1ccc(N)cc1`, the mutagenic call (Species/Cell Type: Nonhuman, Assay Type: Sister-chromatid exchange (SCE) in vivo, Assay Code: SC3T, Evaluation Type: Evaluation B (Post-1980)) was “no conclusion”.
In the case of `CCOC(=O)CC(SP(=S)(OC)OC)C(=O)OCC` (stereo not drawn) (tested in a mixture with another compound), the mutagenic call (Species/Cell Type: Hordeum vulgare (barley), Assay Type: Chromosome aberrations, Assay Code: HOC+, Evaluation Type: Evaluation A (Pre-1980)) is reported as “active; positive”.
With `CC(=O)Nc1ccc(N=Nc2cc(C)ccc2O)cc1` the call [8] was “active; positive”.
For `Cc1c2ccccc2c(C)c2c1c(O)c(O)c1ccccc12`, the mutagenic call (Species/Cell Type: Chinese hamster lung (V79) cells, Assay Type: Forward gene mutation at the HPRT or ouabain locus, Assay Code: V79-*, Activation: With metabolic activation, Evaluation Type: Evaluation A (Pre-1980)) was “inactive; negative” and the call (Species/Cell Type: Nonhuman, Assay Code: CCGT, Evaluation Type: Evaluation A (Pre-1980)) was “no conclusion”.
In the case of `Nc1ccc2c(ccc3ccccc32)n1`, the mutagenic call [5] is reported as “active; positive”.
With `COc1cc(=O)oc(/C=C/C=C/C=C/C(C)=C/[C@]2(C)O[C@H](C)[C@](C)(O)[C@H]2O)c1C` the mutagenic call [6] was “inactive; negative”.
With `Oc1ccccc1O` the mutagenic call (Species/Cell Type: Allium cepa, Assay Type: Chromosome aberrations, Assay Code: ALC+, Evaluation Type: Evaluation A (Pre-1980)) was “active; positive”, the mutagenic call [1] was “active; positive” and the mutagenic call [3] was “active; positive”. The mutagenic call (Species/Cell Type: Mammalian polychromatic erythrocytes, Assay Type: Micronucleus test, chromosome aberrations, Assay Code: MNTT, Evaluation Type: Evaluation B (Post-1980)) was “no conclusion”.
`[Zn]` was tested, and the mutagenic call (Species/Cell Type: Human lymphocytes or leukocytes, Assay Type: Chromosome aberrations in vivo, Assay Code: CY8T, Evaluation Type: Evaluation A (Pre-1980)) was “no conclusion”.
In the case of `Oc1c(Cl)c(Cl)c(Cl)c(Cl)c1Cl`, the mutagenic call [9] is reported as “active; positive”, the mutagenic call (Species/Cell Type: Drosophila melanogaster, Assay Type: Sex-linked recessive lethal gene mutation, Assay Code: SRLT, Evaluation Type: Evaluation A (Pre-1980)) is reported as “no conclusion” and the mutagenic call (Species/Cell Type: Mouse, Sex: Female, Assay Type: Spot test, gene mutation, Assay Code: MST-, Evaluation Type: Evaluation A (Pre-1980)) is reported as “inactive; negative”. The mutagenic call (Species/Cell Type: Saccharomyces cerevisiae, Assay Type: Forward gene mutation, Assay Code: YEF+, Evaluation Type: Evaluation A (Pre-1980)) was “active; positive”, the mutagenic call (Species/Cell Type: Saccharomyces cerevisiae, Assay Type: Mitotic recombination or gene conversion, Assay Code: YEC+, Evaluation Type: Evaluation A (Pre-1980)) was “active; positive” and the mutagenic call [7] was “inactive; negative”. For the same compound, the mutagenic call (Species/Cell Type: Salmonella typhimurium (one or more of the five standard strains: TA98, TA100, TA1535, TA1537, and TA1538), Assay Type: Histidine reverse gene mutation, Ames assay, Assay Code: SAL-, Evaluation Type: Evaluation A (Pre-1980)) was “inactive; negative”, the mutagenic call [10] was “inactive; negative” and the mutagenic call (Species/Cell Type: Syrian hamster embryo (SA7/SHE) cells, Assay Type: Cell transformation, viral enhanced, Assay Code: CT7+, Evaluation Type: Evaluation A (Pre-1980)) was “active; positive”.
In the case of `O=NN(CCCl)C(=O)NC1CCCCC1`, the mutagenic call (Species/Cell Type: Chinese hamster lung (V79) cells, Assay Type: Forward gene mutation at the HPRT or ouabain locus, Assay Code: V79+, Evaluation Type: Evaluation A (Pre-1980)) is reported as “active; positive”, the mutagenic call (Species/Cell Type: Chinese hamster ovary (CHO) cells, Assay Type: Forward gene mutation at the HPRT locus, Assay Code: CHO+, Evaluation Type: Evaluation B (Post-1980)) is reported as “active; positive” and the mutagenic call [2] is reported as “active; positive”. The call [8] was “active; positive”, the mutagenic call (Species/Cell Type: Nonhuman, Assay Type: Sister-chromatid exchange (SCE) in vitro, Assay Code: SC2+, Evaluation Type: Evaluation B (Post-1980)) was “active; positive” and the mutagenic call (Species/Cell Type: Rodents, Sex: Male, Assay Type: Dominant lethal test, Assay Code: DLT+D, Dose Response: With dose response, Evaluation Type: Evaluation A (Pre-1980)) was “active; positive”.
For `Nc1ccc(I)cc1`, the mutagenic call (Species/Cell Type: Mouse, Sex: Male, Assay Type: Sperm morphology, Assay Code: SPI-, Evaluation Type: Evaluation A (Pre-1980)) was “inactive; negative”.
In the case of `O=P(O)(O)CCCl`, the mutagenic call (Species/Cell Type: Allium cepa, Assay Type: Chromosome aberrations, Assay Code: ALC+D, Dose Response: With dose response, Evaluation Type: Evaluation A (Pre-1980)) is reported as “active; positive”.
In the case of `ClCc1ccccc1`, the mutagenic call [9] is reported as “active; positive”, the mutagenic call (Species/Cell Type: Chinese hamster ovary (CHO) cells, Assay Type: Forward gene mutation at the HPRT locus, Assay Code: CHOT, Evaluation Type: Evaluation B (Post-1980)) is reported as “no conclusion” and the mutagenic call (Species/Cell Type: Escherichia coli polA (W3110 vs P3478), Assay Type: Rec-assay, DNA effects (bacterial DNA repair), Assay Code: RE2+, Evaluation Type: Evaluation A (Pre-1980)) is reported as “active; positive”. The mutagenic call (Species/Cell Type: Escherichia coli polA (W3119 vs P3478), Assay Type: Rec-assay, DNA effects (bacterial DNA repair), Assay Code: RE1+, Evaluation Type: Evaluation A (Pre-1980)) was “active; positive”, the mutagenic call (Species/Cell Type: Human diploid fibroblasts, Assay Type: Unscheduled DNA synthesis (UDS) in vitro, DNA effects, Assay Code: UDH+, Evaluation Type: Evaluation A (Pre-1980)) was “active; positive” and the mutagenic call (Species/Cell Type: Human lymphocytes, Assay Type: Sister-chromatid exchange (SCE) in vitro, Assay Code: SCL+, Evaluation Type: Evaluation B (Post-1980)) was “active; positive”. For the same compound, the mutagenic call (Species/Cell Type: Human, Assay Type: Sister-chromatid exchange (SCE) in vitro, Assay Code: SC1+, Evaluation Type: Evaluation B (Post-1980)) was “active; positive”, the mutagenic call (Species/Cell Type: Mammalian polychromatic erythrocytes, Assay Type: Micronucleus test, chromosome aberrations, Assay Code: MNT-, Evaluation Type: Evaluation B (Post-1980)) was “inactive; negative” and the call [4] was “active; positive”. The mutagenic call (Species/Cell Type: Saccharomyces cerevisiae, Assay Type: Mitotic recombination or gene conversion, Assay Code: YEH+, Evaluation Type: Evaluation A (Pre-1980)) was “active; positive”, the mutagenic call (Species/Cell Type: Salmonella typhimurium (one or more of the five standard strains: TA98, TA100, TA1535, TA1537, and TA1538), Assay Type: Histidine reverse gene mutation, Ames assay, Assay Code: SAL+, Evaluation Type: Evaluation A (Pre-1980)) was “active; positive” and the mutagenic call [10] was “inactive; negative”. The mutagenic call (Species/Cell Type: Syrian hamster embryo (SHE) cells, Assay Type: Cell transformation, clonal assay, Assay Code: CTC+, Evaluation Type: Evaluation A (Pre-1980)) was “active; positive”.
